Some test systems named below: 786-0; A498; BT-549; DU-145; EKVX; HT-29; K562; MCF7; OVCAR-4; PC-3; RPMI-8226; RXF 393; SK-MEL-5; SNB-75; SW-620; T47D; TK-10; U-251; UACC-62; UO-31.
Common to all, as to assay: NCI tumour cell line growth inhibition, 48 h

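Results reflect a 48-hour exposure of cells in 96-well plates to compound at five concentrations. At the GI50, growth is halved.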 Calls of active or inactive are those of the source. Rule as the data show it: active = GI50 up to about 1.1 µM and inactive = higher. Bounds are passed on as bounds.

For `COC(=O)Nc1nc2cc(NC(=O)c3cccs3)ccc2[nH]1`, the GI50 was 50.9 µM (inactive) in the experiment on 786-0; 11.2 µM (inactive) in the experiment with A498; 55.1 µM (inactive) with BT-549; 98.9 µM (inactive) with DU-145; 40.3 µM (inactive) in the experiment with EKVX; 33 µM (inactive) in the experiment on HT-29. Besides, the GI50 is 24.3 µM (inactive) in the experiment on K562; 32.1 µM (inactive) in the experiment on MCF7; 74 µM (inactive) with OVCAR-4; 30.2 µM (inactive) in the experiment on PC-3; 18.8 µM (inactive) in the experiment on RPMI-8226; 22.8 µM (inactive) in the experiment with RXF 393. Also, the GI50 was 15.6 µM (inactive) in the experiment with SK-MEL-5; 15.7 µM (inactive) with SNB-75; 27.5 µM (inactive) in the experiment on SW-620; 31.3 µM (inactive) in the experiment with T47D; 36.6 µM (inactive) with TK-10; 34.2 µM (inactive) in the experiment on U-251. In addition, the GI50 is 52.2 µM (inactive) in the experiment with UACC-62 and 10.1 µM (inactive) in the experiment on UO-31.
Turning to `CC(=N/NC(=S)N1CCCCCC1)/C(C)=N\NC(=S)N1CCCCCC1`, the GI50 in the experiment with 786-0 was 4.54 µM (inactive); in the experiment on A498, 1.78 µM (inactive); with BT-549 it was 5.27 µM (inactive); in the experiment with DU-145, 3.21 µM (inactive); in the experiment on EKVX, 3.85 µM (inactive); with HT-29, 2.63 µM (inactive). Also, the GI50 in the experiment on K562 is 13.2 µM (inactive); in the experiment on MCF7, 4.7 µM (inactive); in the experiment with OVCAR-4, 1.79 µM (inactive); with PC-3 it was 5.86 µM (inactive); in the experiment with RPMI-8226, 5.66 µM (inactive); in the experiment with RXF 393, 3.77 µM (inactive). Further, the GI50 in the experiment on SK-MEL-5 is 4.86 µM (inactive); with SNB-75, 5.09 µM (inactive); with SW-620, 2.37 µM (inactive); with T47D, 1.75 µM (inactive); with TK-10 it was 4.34 µM (inactive); in the experiment with U-251, 2.43 µM (inactive). In addition, the GI50 in the experiment with UACC-62 was 4.29 µM (inactive); in the experiment on UO-31, 3.75 µM (inactive).
`COc1cc2c(cc1O)C(Cc1ccc(OCc3ccccc3)c(OCc3ccccc3)c1)N(C(=O)NCCc1ccccc1)CC2` (stereo not given): the GI50 in the experiment with 786-0 is > 100 µM (inactive); with A498, 78.5 µM (inactive); in the experiment with BT-549, > 100 µM (inactive); with DU-145 it was > 100 µM (inactive); with EKVX, > 100 µM (inactive); with HT-29, > 100 µM (inactive). Besides, the GI50 in the experiment with K562 is 74.3 µM (inactive); with MCF7 it was 14.8 µM (inactive); with OVCAR-4 it was 78.9 µM (inactive); in the experiment on PC-3 it was 54.7 µM (inactive); with RPMI-8226, 10.4 µM (inactive); with RXF 393, > 100 µM (inactive). Also, the GI50 with SK-MEL-5 is 33 µM (inactive); in the experiment with SNB-75, > 100 µM (inactive); in the experiment with SW-620, > 100 µM (inactive); with T47D, 16.4 µM (inactive); with TK-10, > 100 µM (inactive); in the experiment with U-251, > 100 µM (inactive). Moreover, the values for the GI50 in the experiment with UACC-62 and in the experiment on UO-31 were > 100 µM (inactive) and 69 µM (inactive), respectively.
As to `CC1=COC2=C(C)C(=O)C(=O)c3c(C)ccc1c32` [MANSONONE F], the GI50 with 786-0 is 4.1 µM (inactive); in the experiment with A498, 20.1 µM (inactive); in the experiment on BT-549, 14.2 µM (inactive); in the experiment with DU-145, 6.21 µM (inactive); in the experiment on EKVX, 6.92 µM (inactive); in the experiment on HT-29, 3.15 µM (inactive). Besides, the GI50 was 3.66 µM (inactive) with K562; 2.69 µM (inactive) in the experiment on MCF7; 2.77 µM (inactive) with OVCAR-4; 2.49 µM (inactive) with PC-3; 1.42 µM (inactive) in the experiment on RPMI-8226; 7.18 µM (inactive) with RXF 393. Also, the GI50 is 0.859 µM (active) in the experiment with SK-MEL-5; 9.06 µM (inactive) in the experiment with SNB-75; 2.61 µM (inactive) in the experiment with SW-620; 8.24 µM (inactive) in the experiment with T47D; 42.1 µM (inactive) with TK-10; 4.38 µM (inactive) in the experiment with U-251. Besides, the values for the GI50 in the experiment with UACC-62 and in the experiment with UO-31 were 3.24 µM (inactive) and 14.7 µM (inactive), respectively.
In the case of `O=C(c1ccc(F)cc1)c1cccc(C(=O)c2ccc(F)cc2)n1`, the GI50 is 37.8 µM (inactive) with 786-0; > 52.7 µM (inactive) with A498; 12.2 µM (inactive) in the experiment with BT-549; > 100 µM (inactive) in the experiment on DU-145; > 100 µM (inactive) in the experiment with EKVX; > 100 µM (inactive) in the experiment with HT-29. The GI50 in the experiment with K562 is > 100 µM (inactive); with MCF7, > 100 µM (inactive); in the experiment on OVCAR-4, 71.6 µM (inactive); in the experiment on PC-3 it was > 100 µM (inactive); with RPMI-8226, > 100 µM (inactive); with RXF 393, 5.56 µM (inactive). Also, the GI50 in the experiment on SK-MEL-5 was 51.8 µM (inactive); with SNB-75 it was 12.6 µM (inactive); with SW-620, > 83.9 µM (inactive); with T47D, 34.4 µM (inactive); with TK-10, 39.7 µM (inactive); in the experiment on U-251, 19.1 µM (inactive). In addition, the GI50 is 44.2 µM (inactive) in the experiment on UACC-62 and 45.3 µM (inactive) with UO-31.
On to `COc1ccccc1N1C(=O)CC(=O)N(C(=O)CCCCCCCCC(=O)N2C(=O)CC(=O)N(c3ccccc3OC)C2=S)C1=S`, for which the GI50 in the experiment on 786-0 is > 100 µM (inactive); in the experiment on A498 it was > 100 µM (inactive); in the experiment on BT-549 it was 55.3 µM (inactive); with DU-145 it was > 100 µM (inactive); with EKVX, 51.8 µM (inactive); in the experiment on HT-29, 49.4 µM (inactive). Moreover, the GI50 in the experiment with K562 is 38.1 µM (inactive); in the experiment with MCF7 it was 44.2 µM (inactive); in the experiment with OVCAR-4, 73.1 µM (inactive); in the experiment with PC-3, 62.5 µM (inactive); in the experiment with RPMI-8226, 35.7 µM (inactive); with RXF 393, 99.3 µM (inactive). For the same compound, the GI50 is 52 µM (inactive) with SK-MEL-5; > 100 µM (inactive) in the experiment on SNB-75; > 100 µM (inactive) with SW-620; 87.3 µM (inactive) in the experiment with T47D; > 100 µM (inactive) in the experiment on TK-10; 70 µM (inactive) in the experiment on U-251. Besides, the GI50 is 41.8 µM (inactive) in the experiment on UACC-62 and 45.9 µM (inactive) in the experiment with UO-31.
For the compound `CCCCOCCOCCOC1=C(Cl)C(=O)c2c(O)ccc(O)c2C1=O`, the GI50 with 786-0 was 1.79 µM (inactive); with A498, 2.36 µM (inactive); in the experiment on BT-549, 1.39 µM (inactive); in the experiment on DU-145, 1.77 µM (inactive); in the experiment on EKVX, 2.57 µM (inactive); in the experiment on HT-29 it was 0.484 µM (active). For the same compound, the GI50 was 0.0419 µM (active) in the experiment with K562; 0.218 µM (active) in the experiment with MCF7; 0.359 µM (active) in the experiment on OVCAR-4; 1.62 µM (inactive) in the experiment with PC-3; 0.212 µM (active) in the experiment with RPMI-8226; 0.809 µM (active) with RXF 393. For the same compound, the GI50 in the experiment with SK-MEL-5 was 0.565 µM (active); with SNB-75 it was 0.382 µM (active); in the experiment on SW-620 it was 0.283 µM (active); in the experiment on T47D, 0.488 µM (active); with TK-10, 1.32 µM (inactive); in the experiment on U-251 it was 1.67 µM (inactive). Further, the figures for the GI50 in the experiment on UACC-62 and in the experiment with UO-31 were 0.8 µM (active) and 1.35 µM (inactive), respectively.
In the case of `COc1ccc2nc3c(c(N)c2c1)C1CCC3C1(C)C` (stereo not given), the GI50 in the experiment with 786-0 is 22.5 µM (inactive); in the experiment on A498, 25.1 µM (inactive); in the experiment with BT-549, > 100 µM (inactive); in the experiment with DU-145, > 100 µM (inactive); in the experiment on EKVX, 30.6 µM (inactive); in the experiment on HT-29, 23.8 µM (inactive). Moreover, the GI50 with K562 was 41.7 µM (inactive); with MCF7 it was 24 µM (inactive); in the experiment with OVCAR-4, 47.6 µM (inactive); in the experiment with PC-3, 24.3 µM (inactive); in the experiment on RPMI-8226, 23.5 µM (inactive); with RXF 393 it was 23 µM (inactive). For the same compound, the GI50 with SK-MEL-5 was 12.5 µM (inactive); in the experiment with SNB-75, 29.6 µM (inactive); in the experiment with SW-620, 25.5 µM (inactive); with T47D it was 22.7 µM (inactive); in the experiment on TK-10, 32.7 µM (inactive); with U-251 it was 38.5 µM (inactive). Also, the values for the GI50 in the experiment with UACC-62 and in the experiment on UO-31 were 15.3 µM (inactive) and 47.4 µM (inactive), respectively.
With `CCOC(=O)CNC1=NNS(=O)(=O)c2ccccc21`, the GI50 was > 100 µM (inactive) in the experiment with 786-0; 20.8 µM (inactive) with A498; > 100 µM (inactive) in the experiment on BT-549; > 100 µM (inactive) in the experiment with DU-145; > 100 µM (inactive) in the experiment with EKVX; > 100 µM (inactive) in the experiment with HT-29. Besides, the GI50 in the experiment on K562, with MCF7, in the experiment with OVCAR-4, in the experiment with PC-3, in the experiment with RPMI-8226 and with RXF 393 was > 100 µM (inactive) each time. The GI50 with SK-MEL-5, with SNB-75, in the experiment on SW-620, with T47D, in the experiment on TK-10 and with U-251 was > 100 µM (inactive) each time. Also, the GI50 in the experiment on UACC-62 and with UO-31 was > 100 µM (inactive) throughout.
Regarding `C(=NCCN1CCOCC1)=NC1CCCCC1`, the GI50 with 786-0, in the experiment with A498, in the experiment on BT-549, in the experiment with DU-145, with EKVX and with HT-29 was > 100 µM (inactive) in each case. Moreover, the GI50 in the experiment on K562, in the experiment with MCF7, in the experiment on OVCAR-4, in the experiment with PC-3, with RPMI-8226 and in the experiment with RXF 393 was > 100 µM (inactive) in each case. In addition, the GI50 with SK-MEL-5, in the experiment on SNB-75, in the experiment on SW-620, with T47D, in the experiment with TK-10 and in the experiment on U-251 was > 100 µM (inactive) each time. For the same compound, the GI50 in the experiment with UACC-62 and in the experiment on UO-31 was > 100 µM (inactive) in each case.

Source of the values: ChEMBL document CHEMBL1201862, “PubChem BioAssay data set” (2004).
